Laboratory results from patent US20210244686A1, “Novel Systems And Methods For The Therapeutic Use of Cannabinoids or Cannabinoid Analogs to Increase The Lipid Order of Cholesterol Containing Cell Membranes” (The Regents of the University of Colorado a body corporate, priority 2018, published 2021).

What was measured:
[1] = test system: SK-N-BE(2) and HaCaT keratinocyte cell lines; experiment: FRET biosensor profiling of CBD response; type: cell-based, human; settings: CBD dose and time survey
Experimental: To efficiently design the multi-omics experiments, the present inventors exposed the neuroblastoma cell line SK-N-BE(2) to escalating doses of CBD at 24, 48, and 72 hours and determined the EC50 of toxicity of CBD to be greatest at 72 hours and at an approximate concentration of 20 μM (FIG. 1 B). To maximize the efficient use of the inventor's multi-omic resources, a large dose and time survey of the CBD response was conducted in a panel of transgenic SK-N-BE(2) and HaCaT keratinocyte cell lines, each expressing a genetically encoded förster resonance energy transfer (FRET) biosensor gene capable of reporting the activity of a cellular effector molecule/activity including, but not limited to: AMP kinase activity, Erk kinase activity, cytosolic ATP, glucose, lactate, pyruvate & glutamine, Ca^2+ in the ER & Cytosol, mTor kinase activity & TACE protease activity. […] The biosensor activity profiles as a function of CBD dose and time (FIGS. 9A-C) were analyzed for the EC50 of each biosensor activity at each time (FIG. 10). The result of these efforts outlined that the most robust dose of CBD for use in multi-omic experiments is 20 μM and that the kinetic profile of the CBD response begins in hours and persists for days.
Stable transgenic biosensor expressing cell lines were made in HaCaT and SK-N-BE(2) cells. […]

[2] = test system: HaCaT cells; experiment: Live cell microscopy apoptosis assay (caspase 3/7 dye); settings: increasing 25-hydroxy cholesterol, constant CBD
Experimental: To accurately measure cellular apoptosis over time, the present inventors performed live cell microscopy experiments with cells loaded with both DNA and caspase 3/7 dyes, which enables continuous and precise quantification of apoptosis at the single cell level.
Cell viability for SK-N-BE(2) cells was conducted using a fluorometric cell viability assay using Resazurin (PromoKine) according to the manufacturer's instructions. […] Dyes were added at the time of seeding, 18-24 hours prior to performing experiments.
Experiments were performed using an ImageXpress MicroXL microscope and a 10× objective, where images were acquired for each well at the indicated time-points using DAPI and FITC filter sets. […] Percent apoptotic cells was calculated from the sum of apoptotic cell pixels divided by the sum of all cell pixels for each field of view.

[3] = test system: SK-N-BE(2) cells; experiment: 13C glucose labelled lipidomics of cholesterol biosynthesis; type: cell-based, human; settings: 20 μM CBD, 24 hours
Experimental: These findings raise the question of whether CBD treatment leads to alterations in lipid and cholesterol metabolism (the latter pathway depicted in FIG. 3A). The present inventors used mass spectrometry-based lipidomics, a subset of metabolomics, to quantify the effect of CBD on the fluxes of key lipids and sterols. Vehicle and CBD exposed cells were fed ^13C labeled glucose for 24 hours and harvested using methanol extraction and mass spectrometry analysis. Cholesterol biosynthesis was analyzed by determining the level of incorporation of ^13C into biosynthetic intermediates. […] The effect of CBD on total cellular cholesterol was confirmed using a fluorogenic assay for cholesterol in an orthogonal experiment (FIG. 11B).
Cultured cells were harvested, washed with PBS, flash frozen, and stored at −80 C. until analysis. Prior to LC-MS analysis, samples were placed on ice and re-suspended with methanol:acetonitrile:water (5:3:2, v/v/v) at a concentration of 2 million cells per ml. Suspensions were vortexed continuously for 30 min at 4° C. Insoluble material was removed by centrifugation at 10,000 g for 10 min at 4° C. and supernatants were isolated for metabolomics analysis by UHPLC-MS. This method was used for cholesterol precursors and free headgroups. […]

For `C=C(C)[C@@H]1CCC(C)=C[C@H]1c1c(O)cc(CCCCC)cc1O` [CBD, cannabidiol], the “biosensor activities across panel” value [1] was “causes modulation of all biochemical pathways that were probed”, the “sensitivity of CBD exposed cells to 25-hydroxy cholesterol induced apoptosis, relative to SK-N-BE(2)” value [2] was “more dramatically observed” and the “labeled and total cholesterol” value [3] was “decrease”. The “total and isotopically-labeled levels of cholesterol precursors” value [3] was “accumulate”.
